Test results from ChEMBL document CHEMBL1201862, “PubChem BioAssay data set” (2004).
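Method: 48-hour compound exposure of cells in 96-well plates, five concentrations, linear interpolation of endpoints. Abbreviation: GI50, concentration required for 50% inhibition of growth.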 Active and inactive are the calls of the source. Rule as the data show it: active = GI50 up to about 1.1 µM and inactive = higher.

How the values were obtained:
Experiment in all cases: NCI anticancer screen, dose series, 48 h
[1] = test system: SNB-75
[2] = test system: MDA-MB-435
[3] = test system: SF-295
[4] = test system: HOP-62
[5] = test system: HL-60
[6] = test system: Hs-578T
[7] = test system: IGROV-1
[8] = test system: OVCAR-5
[9] = test system: OVCAR-8
[10] = test system: SF-539
[11] = test system: SK-MEL-5
[12] = test system: T47D
[13] = test system: A549
[14] = test system: PC-3
[15] = test system: SR
[16] = test system: U-251
[17] = test system: MOLT-4
[18] = test system: SK-MEL-28
[19] = test system: CCRF-CEM
[20] = test system: HCC 2998
[21] = test system: HCT-15
[22] = test system: UO-31
[23] = test system: NCI/ADR-RES
[24] = test system: HOP-92
[25] = test system: BT-549
[26] = test system: RPMI-8226
[27] = test system: DU-145
[28] = test system: HCT-116
[29] = test system: OVCAR-3
[30] = test system: KM12
[31] = test system: LOX IMVI
[32] = test system: M14
[33] = test system: RXF 393
[34] = test system: SK-OV-3
[35] = test system: SNB-19
[36] = test system: NCI-H522
[37] = test system: COLO 205
[38] = test system: K562
[39] = test system: NCI-H23
[40] = test system: HT-29
[41] = test system: UACC-257
[42] = test system: 786-0
[43] = test system: Malme-3M
[44] = test system: EKVX
[45] = test system: MDA-MB-231
[46] = test system: OVCAR-4
[47] = test system: SF-268
[48] = test system: SN12C
[49] = test system: SW-620
[50] = test system: ACHN
[51] = test system: NCI-H226
[52] = test system: NCI-H460
[53] = test system: A498
[54] = test system: MDA-N
[55] = test system: TK-10
[56] = test system: MCF7
[57] = test system: UACC-62
[58] = test system: SK-MEL-2
[59] = test system: CAKI-1

O=C(CNc1ccc(Cl)cc1Cl)Nn1c(-c2ccccc2)nc2ccccc2c1=O
GI50 [1]: 15.3 µM (inactive)
GI50 [2]: 14.9 µM (inactive)
GI50 [3]: 14.9 µM (inactive)
GI50 [4]: > 10 µM (inactive)
GI50 [5]: 20 µM (inactive)
GI50 [6]: 23.9 µM (inactive)
GI50 [7]: 15.2 µM (inactive)
GI50 [8]: 23 µM (inactive)
GI50 [9]: 35 µM (inactive)
GI50 [10]: 19.6 µM (inactive)
GI50 [11]: 5.94 µM (inactive)
GI50 [12]: 14.6 µM (inactive)
GI50 [13]: 30.5 µM (inactive)
GI50 [14]: 14.9 µM (inactive)
GI50 [15]: 13.9 µM (inactive)
GI50 [16]: > 10 µM (inactive)
GI50 [17]: 5.14 µM (inactive)
GI50 [18]: 21.1 µM (inactive)
GI50 [19]: 2.9 µM (inactive)
GI50 [20]: 17.7 µM (inactive)
GI50 [21]: 19.1 µM
GI50 [22]: 22.4 µM (inactive)
GI50 [23]: 20.3 µM (inactive)
GI50 [24]: 4.33 µM (inactive)
GI50 [25]: 16.3 µM (inactive)
GI50 [26]: 21.3 µM (inactive)
GI50 [27]: 14.5 µM (inactive)
GI50 [28]: 16.7 µM (inactive)
GI50 [29]: 17 µM (inactive)
GI50 [30]: > 10 µM (inactive)
GI50 [31]: 9.95 µM (inactive)
GI50 [32]: 13.7 µM (inactive)
GI50 [33]: 18.9 µM (inactive)
GI50 [34]: 28.2 µM (inactive)
GI50 [35]: 18.5 µM (inactive)
GI50 [36]: 12 µM (inactive)
GI50 [37]: 11.1 µM (inactive)
GI50 [38]: 10.2 µM (inactive)
GI50 [39]: 12.6 µM (inactive)
GI50 [40]: 16.1 µM (inactive)
GI50 [41]: 21.6 µM (inactive)
GI50 [42]: 16.8 µM (inactive)
GI50 [43]: 18.2 µM (inactive)
GI50 [44]: 19.2 µM (inactive)
GI50 [45]: 14.8 µM (inactive)
GI50 [46]: 13.9 µM (inactive)
GI50 [47]: 3.86 µM (inactive)
GI50 [48]: 16.1 µM (inactive)
GI50 [49]: 16.2 µM (inactive)
GI50 [50]: 17.6 µM (inactive)
GI50 [51]: 33.8 µM (inactive)
GI50 [52]: 15.7 µM (inactive)
GI50 [53]: > 10 µM (inactive)
GI50 [54]: 15.9 µM (inactive)
GI50 [55]: 19.5 µM (inactive)
GI50 [56]: 13.4 µM (inactive)
GI50 [57]: 3.34 µM (inactive)

CCOc1cc(/C=N/c2nc3cc4sc(/N=C/c5ccc(O)c(OCC)c5)nc4cc3s2)ccc1O
GI50 [1]: > 100 µM (inactive)
GI50 [2]: > 100 µM (inactive)
GI50 [3]: > 100 µM (inactive)
GI50 [4]: > 100 µM (inactive)
GI50 [5]: 3.62 µM (inactive)
GI50 [6]: > 100 µM (inactive)
GI50 [7]: > 100 µM (inactive)
GI50 [8]: > 100 µM (inactive)
GI50 [9]: > 100 µM (inactive)
GI50 [10]: 20.7 µM (inactive)
GI50 [11]: 71.8 µM (inactive)
GI50 [12]: > 100 µM (inactive)
GI50 [13]: 52.4 µM (inactive)
GI50 [14]: > 100 µM (inactive)
GI50 [15]: 12.9 µM (inactive)
GI50 [16]: > 100 µM (inactive)
GI50 [17]: 30.8 µM (inactive)
GI50 [18]: 21.3 µM (inactive)
GI50 [20]: > 100 µM (inactive)
GI50 [21]: > 100 µM
GI50 [22]: > 100 µM (inactive)
GI50 [23]: > 100 µM (inactive)
GI50 [24]: > 100 µM (inactive)
GI50 [25]: > 100 µM (inactive)
GI50 [26]: > 100 µM (inactive)
GI50 [27]: > 100 µM (inactive)
GI50 [28]: > 100 µM (inactive)
GI50 [29]: > 100 µM (inactive)
GI50 [30]: > 100 µM (inactive)
GI50 [31]: 55.8 µM (inactive)
GI50 [32]: > 100 µM (inactive)
GI50 [33]: > 100 µM (inactive)
GI50 [34]: > 100 µM (inactive)
GI50 [35]: > 100 µM (inactive)
GI50 [36]: 50.4 µM (inactive)
GI50 [37]: 24.7 µM (inactive)
GI50 [38]: 60.5 µM (inactive)
GI50 [39]: > 100 µM (inactive)
GI50 [40]: 60.4 µM (inactive)
GI50 [41]: > 100 µM (inactive)
GI50 [42]: > 100 µM (inactive)
GI50 [43]: > 100 µM (inactive)
GI50 [44]: 79.1 µM (inactive)
GI50 [45]: > 100 µM (inactive)
GI50 [46]: > 100 µM (inactive)
GI50 [58]: > 100 µM (inactive)
GI50 [59]: > 100 µM (inactive)
GI50 [47]: > 100 µM (inactive)
GI50 [48]: 76.7 µM (inactive)
GI50 [49]: 38.7 µM (inactive)
GI50 [50]: > 100 µM (inactive)
GI50 [51]: 25.8 µM (inactive)
GI50 [52]: 20.4 µM (inactive)
GI50 [53]: > 100 µM (inactive)
GI50 [54]: 93.3 µM (inactive)
GI50 [55]: > 100 µM (inactive)
GI50 [56]: 82 µM (inactive)
GI50 [57]: > 100 µM (inactive)

C/C=N\n1c(C)c(C#N)c(C#N)c1N
GI50 [1]: > 100 µM (inactive)
GI50 [2]: > 100 µM (inactive)
GI50 [3]: > 100 µM (inactive)
GI50 [4]: > 100 µM (inactive)
GI50 [5]: > 100 µM (inactive)
GI50 [6]: > 100 µM (inactive)
GI50 [7]: > 100 µM (inactive)
GI50 [8]: > 100 µM (inactive)
GI50 [9]: > 100 µM (inactive)
GI50 [10]: > 100 µM (inactive)
GI50 [11]: > 100 µM (inactive)
GI50 [12]: > 100 µM (inactive)
GI50 [13]: 34.5 µM (inactive)
GI50 [14]: > 100 µM (inactive)
GI50 [15]: > 100 µM (inactive)
GI50 [16]: > 100 µM (inactive)
GI50 [17]: > 100 µM (inactive)
GI50 [19]: > 100 µM (inactive)
GI50 [20]: > 100 µM (inactive)
GI50 [21]: > 100 µM
GI50 [22]: > 100 µM (inactive)
GI50 [23]: > 100 µM (inactive)
GI50 [24]: > 100 µM (inactive)
GI50 [25]: > 100 µM (inactive)
GI50 [26]: > 100 µM (inactive)
GI50 [27]: > 100 µM (inactive)
GI50 [28]: > 100 µM (inactive)
GI50 [29]: > 100 µM (inactive)
GI50 [30]: > 100 µM (inactive)
GI50 [31]: > 100 µM (inactive)
GI50 [32]: > 100 µM (inactive)
GI50 [33]: > 100 µM (inactive)
GI50 [34]: > 100 µM (inactive)
GI50 [35]: > 100 µM (inactive)
GI50 [36]: > 100 µM (inactive)
GI50 [37]: > 100 µM (inactive)
GI50 [38]: > 100 µM (inactive)
GI50 [39]: > 100 µM (inactive)
GI50 [40]: > 100 µM (inactive)
GI50 [41]: > 100 µM (inactive)
GI50 [42]: > 100 µM (inactive)
GI50 [43]: > 100 µM (inactive)
GI50 [44]: > 100 µM (inactive)
GI50 [45]: > 100 µM (inactive)
GI50 [46]: > 100 µM (inactive)
GI50 [58]: > 100 µM (inactive)
GI50 [59]: > 100 µM (inactive)
GI50 [47]: > 100 µM (inactive)
GI50 [48]: > 100 µM (inactive)
GI50 [49]: > 100 µM (inactive)
GI50 [50]: > 100 µM (inactive)
GI50 [51]: > 100 µM (inactive)
GI50 [53]: > 100 µM (inactive)
GI50 [54]: > 100 µM (inactive)
GI50 [55]: > 100 µM (inactive)
GI50 [56]: > 100 µM (inactive)
GI50 [57]: > 100 µM (inactive)

OCC1CCCCN1Cc1nc2cc(Cl)ccc2[nH]1 (stereo not given)
GI50 [1]: > 100 µM (inactive)
GI50 [2]: > 100 µM (inactive)
GI50 [3]: > 100 µM (inactive)
GI50 [4]: > 100 µM (inactive)
GI50 [5]: > 100 µM (inactive)
GI50 [6]: > 100 µM (inactive)
GI50 [7]: > 100 µM (inactive)
GI50 [8]: > 100 µM (inactive)
GI50 [9]: > 100 µM (inactive)
GI50 [10]: > 100 µM (inactive)
GI50 [11]: > 100 µM (inactive)
GI50 [12]: > 100 µM (inactive)
GI50 [13]: > 100 µM (inactive)
GI50 [14]: 55.2 µM (inactive)
GI50 [15]: > 100 µM (inactive)
GI50 [16]: > 100 µM (inactive)
GI50 [17]: > 100 µM (inactive)
GI50 [18]: > 100 µM (inactive)
GI50 [19]: > 100 µM (inactive)
GI50 [20]: > 100 µM (inactive)
GI50 [21]: > 100 µM
GI50 [22]: > 100 µM (inactive)
GI50 [23]: > 100 µM (inactive)
GI50 [24]: > 100 µM (inactive)
GI50 [25]: > 100 µM (inactive)
GI50 [26]: > 100 µM (inactive)
GI50 [27]: > 100 µM (inactive)
GI50 [28]: > 100 µM (inactive)
GI50 [29]: > 100 µM (inactive)
GI50 [30]: > 100 µM (inactive)
GI50 [32]: > 100 µM (inactive)
GI50 [33]: 65 µM (inactive)
GI50 [34]: > 100 µM (inactive)
GI50 [35]: > 100 µM (inactive)
GI50 [36]: > 100 µM (inactive)
GI50 [37]: > 100 µM (inactive)
GI50 [38]: > 100 µM (inactive)
GI50 [39]: > 100 µM (inactive)
GI50 [40]: 56.1 µM (inactive)
GI50 [41]: > 100 µM (inactive)
GI50 [42]: > 100 µM (inactive)
GI50 [43]: > 100 µM (inactive)
GI50 [44]: > 100 µM (inactive)
GI50 [45]: > 100 µM (inactive)
GI50 [46]: > 100 µM (inactive)
GI50 [58]: > 100 µM (inactive)
GI50 [59]: > 100 µM (inactive)
GI50 [47]: > 100 µM (inactive)
GI50 [48]: > 100 µM (inactive)
GI50 [49]: > 100 µM (inactive)
GI50 [50]: > 100 µM (inactive)
GI50 [51]: 95.5 µM (inactive)
GI50 [52]: > 100 µM (inactive)
GI50 [53]: > 100 µM (inactive)
GI50 [54]: > 100 µM (inactive)
GI50 [55]: > 100 µM (inactive)
GI50 [56]: > 100 µM (inactive)
GI50 [57]: > 100 µM (inactive)
